{"source": "ChEMBL document CHEMBL1137379", "about": "“9-{[3-fluoro-2-(hydroxymethyl)cyclopropylidene]methyl}adenines and -guanines. Synthesis and antiviral activity of all stereoisomers1” (J Med Chem, 2006)", "key": {"[1]": {"target": "T1, Adenosine deaminase (Bos taurus) (UniProt P56658)", "T1 sequence (whole entry)": "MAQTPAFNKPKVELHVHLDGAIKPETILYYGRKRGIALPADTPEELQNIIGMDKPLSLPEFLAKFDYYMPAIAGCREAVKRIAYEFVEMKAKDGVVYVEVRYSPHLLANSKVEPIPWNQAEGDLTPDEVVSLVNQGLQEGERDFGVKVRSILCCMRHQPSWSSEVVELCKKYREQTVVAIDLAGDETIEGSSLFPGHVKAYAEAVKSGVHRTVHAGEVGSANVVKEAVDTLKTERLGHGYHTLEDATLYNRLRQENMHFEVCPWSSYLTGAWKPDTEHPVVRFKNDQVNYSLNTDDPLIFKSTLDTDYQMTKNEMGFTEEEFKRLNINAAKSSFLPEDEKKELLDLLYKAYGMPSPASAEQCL", "assay": "Activity at calf intestine ADA by adenosine deaminase assay after 24 hrs"}, "[2]": {"target": "T1, Adenosine deaminase (Bos taurus)", "assay": "Activity at calf intestine ADA by adenosine deaminase assay after 48 hrs"}, "[3]": {"test_system": "Human gammaherpesvirus 4", "assay": "Inhibition of EBV replication in Daudi cells by viral capsid antigen-ELISA", "assay_type": "functional, organism-based", "settings": "human gammaherpesvirus 4, Daudi"}, "[4]": {"test_system": "Human alphaherpesvirus 1", "assay": "Inhibition of HSV1 replication in BSC1 cells by ELISA", "assay_type": "functional, organism-based", "settings": "Human alphaherpesvirus 1, BSC-1"}, "[5]": {"test_system": "KB", "assay": "Cytotoxicity against KB cells", "assay_type": "functional", "settings": "Homo sapiens"}, "[6]": {"test_system": "Daudi", "assay": "Cytotoxicity against Daudi cells", "assay_type": "functional", "settings": "Homo sapiens"}, "[7]": {"test_system": "Human betaherpesvirus 5", "assay": "Inhibition of HCMV AD169 replication in HFF cells by cytopathic effect assay", "assay_type": "functional, organism-based", "settings": "Human betaherpesvirus 5, AD169, HFF"}, "[8]": {"test_system": "Human betaherpesvirus 5", "assay": "Inhibition of HCMV towne replication in HFF cells by plaque reduction assay", "assay_type": "functional, organism-based", "settings": "Human betaherpesvirus 5, Towne"}, "[9]": {"test_system": "HFF", "assay": "Cytotoxicity against HFF cell by neutral red uptake assay", "assay_type": "functional", "settings": "Homo sapiens"}, "[10]": {"test_system": "Human gammaherpesvirus 4", "assay": "Inhibition of EBV replication in H1 cells by DNA hybridization assay", "assay_type": "functional, organism-based", "settings": "human gammaherpesvirus 4, H1"}, "[11]": {"test_system": "Hepatitis B virus", "assay": "Inhibition of HBV replication in 2.2.15 cells by DNA hybridization assay", "assay_type": "functional, organism-based", "settings": "HepG2 2.2.15"}, "[12]": {"test_system": "HepG2", "assay": "Cytotoxicity against 2.2.15 cells", "assay_type": "functional", "settings": "Homo sapiens"}, "[13]": {"test_system": "Human immunodeficiency virus 1", "assay": "Inhibition of HIV1 LAI replication in MT2 cells by cytopathic effect assay", "assay_type": "functional, organism-based", "settings": "Human immunodeficiency virus 1, LAI"}, "[14]": {"test_system": "MT2", "assay": "Cytotoxicity against MT2 cells", "assay_type": "functional", "settings": "Homo sapiens"}}, "note": "pEC50: −log10 of the molar value. Calls of active or inactive are those of the source. No cut-off for these calls is given here."}
{"smiles": "Nc1ncnc2c1ncn2/C=C1/[C@@H](CO)[C@H]1F", "note": "(relative stereo)", "values": [{"measurement": "Activity", "setting": "[1]", "value": 50, "unit": "%"}]}
{"smiles": "Nc1ncnc2c1ncn2/C=C1/[C@@H](F)[C@@H]1CO", "note": "(relative stereo)", "values": [{"measurement": "Activity", "setting": "[1]", "value": 50, "unit": "%"}]}
{"smiles": "Nc1ncnc2c1ncn2/C=C1/[C@@H](F)[C@H]1CO", "note": "(relative stereo)", "values": [{"measurement": "Activity", "setting": "[1]", "value": 50, "unit": "%"}]}
{"smiles": "Nc1ncnc2c1ncn2/C=C1\\[C@H](F)[C@H]1CO", "note": "(relative stereo)", "values": [{"measurement": "Activity", "setting": "[2]", "value": "inactive"}]}
{"smiles": "Nc1nc2c(ncn2COCCO)c(=O)[nH]1", "note": "[ACYCLOVIR]", "values": [{"measurement": "pEC50", "setting": "[3]", "value": 6.48}, {"measurement": "pEC50", "setting": "[4]", "value": 5.46}, {"measurement": "CC50", "setting": "[5]", "value": "> 100000", "unit": "nM"}, {"measurement": "CC50", "setting": "[6]", "value": "> 100000", "unit": "nM"}]}
{"smiles": "Nc1nc2c(ncn2COC(CO)CO)c(=O)[nH]1", "note": "[GANCICLOVIR]", "values": [{"measurement": "pEC50", "setting": "[7]", "value": 6.82}, {"measurement": "pEC50", "setting": "[8]", "value": 5.74}, {"measurement": "CC50", "setting": "[9]", "value": "> 100000", "unit": "nM"}, {"measurement": "pEC50", "setting": "[10]", "value": 5.30}]}
{"smiles": "Nc1ccn([C@@H]2CS[C@H](CO)O2)c(=O)n1", "note": "[LAMIVUDINE]", "values": [{"measurement": "pEC50", "setting": "[11]", "value": 7.70}, {"measurement": "CC50", "setting": "[12]", "value": "> 100000", "unit": "nM"}]}
{"smiles": "Cc1cn([C@H]2C[C@H](N=[N+]=[N-])[C@@H](CO)O2)c(=O)[nH]c1=O", "note": "[ZIDOVUDINE]", "values": [{"measurement": "pEC50", "setting": "[13]", "value": 7.70}, {"measurement": "CC50", "setting": "[14]", "value": "> 10000", "unit": "nM"}]}
